Here are results for seven molecules from publication PMC9515629, “Cystargolide-based amide and ester Pz analogues as proteasome inhibitors and anti-cancer agents” (Royal Society Open Science, 2022).

Each structure is given as a SMILES string. Where only a bound is given, the exact number is not on record here.

System in the first data set: not given
Test: not given
As to conditions: cited from earlier work.
For the molecule `CC(C)C[C@H](NC(=O)[C@H](Cc1ccccc1)NC(=O)c1cnccn1)B(O)O` [bortezomib], the “peripheral neuropathy, share of patients” value was “more than 30%”.

A further data set deals with MDA-MB-231 cells. As to the kind of experiment: Cytotoxicity toward MDA-MB-231 cells. The settings on record: Homo sapiens, read-out: cytotoxicity IC50 ± s.d., MDA-MB-231. The format is cell-based. As for the experimental part: (§1) Next, analogues 8a–l were evaluated for their cytotoxicities toward Jurkat cells, a human T-cell leukemia model, as well as the breast cancer cell lines MCF-7 and MDA-MB-231, and the multiple myeloma cell line RPMI 8226.
A word on the IC50: it is the concentration at which inhibition is half-maximal. `CC[C@H](C)[C@@H]1C(=O)O[C@H]1C(=O)N[C@H](C(=O)N[C@@H](COCc1ccccc1)C(=O)OCc1ccccc1)C(C)C` [compound 1]: the IC50 was 620 ± 50 nM.

As to `CC[C@H](C)[C@@H]1C(=O)O[C@H]1C(=O)N[C@H](C(=O)N[C@@H](COCc1ccccc1)C(=O)OCc1ccccn1)C(C)C` [8g], the IC50 came out at 39 ± 2 nM.

As for `CC(C)C[C@H](NC(=O)[C@H](CCc1ccccc1)NC(=O)CN1CCOCC1)C(=O)N[C@@H](Cc1ccccc1)C(=O)N[C@@H](CC(C)C)C(=O)[C@@]1(C)CO1` [carfilzomib, reference compound], the IC50 was found to be 4.4 ± 0.1 nM.

Take `CC[C@H](C)[C@@H]1C(=O)O[C@H]1C(=O)N[C@H](C(=O)N[C@@H](COCc1ccccc1)C(=O)OCc1cnccn1)C(C)C` [8j]: the IC50 stood at 146 ± 3 nM.

For `CC[C@H](C)[C@@H]1C(=O)O[C@H]1C(=O)N[C@H](C(=O)N[C@@H](COCc1ccccc1)C(=O)OCc1ccc(OC)cc1)C(C)C` [8l], the IC50 was 636 ± 47 nM.

With `CC[C@H](C)[C@@H]1C(=O)O[C@H]1C(=O)N[C@H](C(=O)N[C@@H](COCc1ccccc1)C(=O)NCc1ccccn1)C(C)C` [8b], the IC50 is 156 ± 3 nM.

Another data set has as its system MDA-MB-231 cells.
Test: not given
The arrangement: method as in PMID 30165344. The settings on record: earlier work; read-out: cytotoxicity IC50, MDA-MB-231; cited from earlier work.
In the case of `CC[C@H](C)[C@@H]1C(=O)O[C@H]1C(=O)N[C@H](C(=O)N[C@@H](COCc1ccccc1)C(=O)OCc1ccccc1)C(C)C` [compound 1], the IC50 was 74 nM.

System in the next data set: not listed separately
The data set can be described thus: Experimentally determined LogP.
Settings: not given
It is filed as physicochemical.
As usually defined, the logP is a log measure of how a compound divides between an organic and an aqueous phase. Read a high logP as higher lipophilicity. The molecule `CC[C@H](C)[C@@H]1C(=O)O[C@H]1C(=O)N[C@H](C(=O)N[C@@H](COCc1ccccc1)C(=O)OCc1ccccn1)C(C)C` [8g] returned a logP of 1.65.

The test system of the next data set is MCF-7 cells.
Test: not given
The arrangement: method as in PMID 30165344. As to conditions: earlier work; read-out: cytotoxicity IC50, MCF-7; cited from earlier work.
`CC[C@H](C)[C@@H]1C(=O)O[C@H]1C(=O)N[C@H](C(=O)N[C@@H](COCc1ccccc1)C(=O)OCc1ccccc1)C(C)C` [compound 1]: the IC50 was 416 nM.

Another data set concerns the target T1, β5 subunit of human proteasomes (hβ5) (Homo sapiens, UniProt P28074).
T1 construct: endogenous in cells; host or cells: Jurkat cell lysate (crude)
T1 sequence (P28074 60-263): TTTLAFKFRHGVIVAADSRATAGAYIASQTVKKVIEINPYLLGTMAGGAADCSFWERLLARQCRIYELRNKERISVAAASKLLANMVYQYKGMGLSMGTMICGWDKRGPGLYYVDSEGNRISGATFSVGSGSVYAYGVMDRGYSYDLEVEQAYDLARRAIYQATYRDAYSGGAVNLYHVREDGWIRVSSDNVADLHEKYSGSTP
The data set can be described thus: Proteasome chymotrypsin-like (β5) activity in crude Jurkat cell lysate, Suc-LLVY-AMC substrate. It is filed as biochemical. As to conditions: read-out: proteasome inhibition IC50 ± s.d., hβ5. As to the method: Based on our previously reported procedure, the degree of peptide cleavage in a crude Jurkat cell lysate was measured to determine proteasome activity. The fluorescent substrate Suc-LLVY-AMC (Enzo Life Sciences) was used to determine chymotrypsin-like (β5) activity of the proteasomes.
`CC[C@H](C)[C@@H]1C(=O)O[C@H]1C(=O)N[C@H](C(=O)N[C@@H](COCc1ccccc1)C(=O)OCc1ccccn1)C(C)C` [8g]: the IC50 was 7.1 ± 1.6 nM.

Turning to `CC[C@H](C)[C@@H]1C(=O)O[C@H]1C(=O)N[C@H](C(=O)N[C@@H](COCc1ccccc1)C(=O)OCc1cnccn1)C(C)C` [8j], the IC50 was found to be 13.7 ± 1.6 nM.

Take `CC[C@H](C)[C@@H]1C(=O)O[C@H]1C(=O)N[C@H](C(=O)N[C@@H](COCc1ccccc1)C(=O)OCc1ccc(OC)cc1)C(C)C` [8l]: the IC50 was found to be 18.8 ± 5 nM.

Regarding `CC[C@H](C)[C@@H]1C(=O)O[C@H]1C(=O)N[C@H](C(=O)N[C@@H](COCc1ccccc1)C(=O)NCc1ccccn1)C(C)C` [8b], the IC50 stood at 4.1 ± 1.9 nM.

The test system of a further data set is MCF-10A cells. As to the kind of experiment: Cytotoxicity toward MCF-10A cells (normal breast tissue model). The format is cell-based. As to conditions: Homo sapiens, model for normal breast tissue.
In the case of `CC[C@H](C)[C@@H]1C(=O)O[C@H]1C(=O)N[C@H](C(=O)N[C@@H](COCc1ccccc1)C(=O)OCc1ccccn1)C(C)C` [8g], 123 nM corresponded to half-maximal inhibition (IC50).

For `CC(C)C[C@H](NC(=O)[C@H](CCc1ccccc1)NC(=O)CN1CCOCC1)C(=O)N[C@@H](Cc1ccccc1)C(=O)N[C@@H](CC(C)C)C(=O)[C@@]1(C)CO1` [carfilzomib, reference compound], the IC50 is 79 nM.

For another data set, the system named is MCF-7 cells. As to the kind of experiment: Cytotoxicity toward MCF-7 cells. It is filed as cell-based. The settings on record: Homo sapiens, MCF7; read-out: cytotoxicity IC50 ± s.d., MCF-7. As to the method:
as §1
Consider `CC[C@H](C)[C@@H]1C(=O)O[C@H]1C(=O)N[C@H](C(=O)N[C@@H](COCc1ccccc1)C(=O)OCc1ccccc1)C(C)C` [compound 1], for which the IC50 was 2380 ± 261 nM.

Take `CC[C@H](C)[C@@H]1C(=O)O[C@H]1C(=O)N[C@H](C(=O)N[C@@H](COCc1ccccc1)C(=O)OCc1ccccn1)C(C)C` [8g]: the IC50 amounted to 1020 ± 42 nM.

For the molecule `CC(C)C[C@H](NC(=O)[C@H](CCc1ccccc1)NC(=O)CN1CCOCC1)C(=O)N[C@@H](Cc1ccccc1)C(=O)N[C@@H](CC(C)C)C(=O)[C@@]1(C)CO1` [carfilzomib, reference compound], the IC50 was found to be 5.9 ± 0.7 nM.

Consider `CC[C@H](C)[C@@H]1C(=O)O[C@H]1C(=O)N[C@H](C(=O)N[C@@H](COCc1ccccc1)C(=O)OCc1cnccn1)C(C)C` [8j], for which the IC50 amounted to 4530 ± 290 nM.

As for `CC[C@H](C)[C@@H]1C(=O)O[C@H]1C(=O)N[C@H](C(=O)N[C@@H](COCc1ccccc1)C(=O)OCc1ccc(OC)cc1)C(C)C` [8l], the IC50 stood at 1670 ± 267 nM.

For `CC[C@H](C)[C@@H]1C(=O)O[C@H]1C(=O)N[C@H](C(=O)N[C@@H](COCc1ccccc1)C(=O)NCc1ccccn1)C(C)C` [8b], the IC50 amounted to 453 ± 24 nM.

The next data set concerns Jurkat cells. As to the kind of experiment: Cytotoxicity toward Jurkat cells. The format is cell-based. The settings on record: Homo sapiens, read-out: cytotoxicity IC50 ± s.d., Jurkat. As for the experimental part: as §1
Take `CC[C@H](C)[C@@H]1C(=O)O[C@H]1C(=O)N[C@H](C(=O)N[C@@H](COCc1ccccc1)C(=O)OCc1ccccc1)C(C)C` [compound 1]: the IC50 was 62 ± 7 nM.

For the molecule `CC[C@H](C)[C@@H]1C(=O)O[C@H]1C(=O)N[C@H](C(=O)N[C@@H](COCc1ccccc1)C(=O)OCc1ccccn1)C(C)C` [8g], the half-maximal inhibitory concentration (IC50) is 35 ± 10 nM.

As to `CC(C)C[C@H](NC(=O)[C@H](CCc1ccccc1)NC(=O)CN1CCOCC1)C(=O)N[C@@H](Cc1ccccc1)C(=O)N[C@@H](CC(C)C)C(=O)[C@@]1(C)CO1` [carfilzomib, reference compound], the IC50 turned out to be 3.7 ± 0.3 nM.

With `CC[C@H](C)[C@@H]1C(=O)O[C@H]1C(=O)N[C@H](C(=O)N[C@@H](COCc1ccccc1)C(=O)OCc1cnccn1)C(C)C` [8j], the IC50 came to 166 ± 9 nM.

As to `CC[C@H](C)[C@@H]1C(=O)O[C@H]1C(=O)N[C@H](C(=O)N[C@@H](COCc1ccccc1)C(=O)OCc1ccc(OC)cc1)C(C)C` [8l], the IC50 stood at 2260 ± 158 nM.

For `CC[C@H](C)[C@@H]1C(=O)O[C@H]1C(=O)N[C@H](C(=O)N[C@@H](COCc1ccccc1)C(=O)NCc1ccccn1)C(C)C` [8b], the IC50 worked out at 58 ± 14 nM.

In another data set the test system is RPMI 8226 cells.
Test: not given
The arrangement: method as in PMID 30165344. As to conditions: earlier work; read-out: cytotoxicity IC50, RPMI 8226; cited from earlier work.
With `CC[C@H](C)[C@@H]1C(=O)O[C@H]1C(=O)N[C@H](C(=O)N[C@@H](COCc1ccccc1)C(=O)OCc1ccccc1)C(C)C` [compound 1], the IC50 was 41 nM.

System in a further data set: not listed separately
As to the kind of experiment: Half-life in buffer. It is filed as physicochemical.
Settings: not given
The source says: (§2) Isosteric replacement of the phenyl ring at Pz by either a pyridyl or pyrazyl group was well tolerated, allowing the inclusion of one (compounds 8b–d and 8g–i) or two nitrogen atoms (compounds 8e and 8j).
The half-life is how long it takes for the measured level to halve. Lower therefore signals fast loss. `CC[C@H](C)[C@@H]1C(=O)O[C@H]1C(=O)N[C@H](C(=O)N[C@@H](COCc1ccccc1)C(=O)OCc1ccccn1)C(C)C` [8g] registered a half-life of over 10 min.

System in the next data set: not listed separately
As to the kind of experiment: Biological stability in serum.
Settings: not given
The format is in vitro ADME.
Source text: as §2
In the case of `CC[C@H](C)[C@@H]1C(=O)O[C@H]1C(=O)N[C@H](C(=O)N[C@@H](COCc1ccccc1)C(=O)OCc1ccccn1)C(C)C` [8g], the “biological stability in serum” value is listed as “greater than 5 min”.

For a further data set, the system named is RPMI 8226 cells. As to the kind of experiment: Cytotoxicity toward RPMI 8226 cells. It is filed as cell-based. The settings on record: Homo sapiens, read-out: cytotoxicity IC50 ± s.d., RPMI 8226. As for the experimental part: as §1
Regarding `CC[C@H](C)[C@@H]1C(=O)O[C@H]1C(=O)N[C@H](C(=O)N[C@@H](COCc1ccccc1)C(=O)OCc1ccccc1)C(C)C` [compound 1], the IC50 was 45 ± 0.5 nM.

Regarding `CC[C@H](C)[C@@H]1C(=O)O[C@H]1C(=O)N[C@H](C(=O)N[C@@H](COCc1ccccc1)C(=O)OCc1ccccn1)C(C)C` [8g], the half-maximal inhibitory concentration (IC50) was 21 ± 3 nM.

On to `CC(C)C[C@H](NC(=O)[C@H](CCc1ccccc1)NC(=O)CN1CCOCC1)C(=O)N[C@@H](Cc1ccccc1)C(=O)N[C@@H](CC(C)C)C(=O)[C@@]1(C)CO1` [carfilzomib, reference compound], for which the IC50 was found to be 3.7 ± 0.3 nM.

In the case of `CC[C@H](C)[C@@H]1C(=O)O[C@H]1C(=O)N[C@H](C(=O)N[C@@H](COCc1ccccc1)C(=O)OCc1cnccn1)C(C)C` [8j], the IC50 came out at 48 ± 2 nM.

Take `CC[C@H](C)[C@@H]1C(=O)O[C@H]1C(=O)N[C@H](C(=O)N[C@@H](COCc1ccccc1)C(=O)OCc1ccc(OC)cc1)C(C)C` [8l]: the IC50 came out at 112 ± 2 nM.

For `CC[C@H](C)[C@@H]1C(=O)O[C@H]1C(=O)N[C@H](C(=O)N[C@@H](COCc1ccccc1)C(=O)NCc1ccccn1)C(C)C` [8b], the IC50 was determined as 139 ± 6 nM.
